Read-outs that look alike come from different tables or passages of the source.
Tests used:
Assay type in all cases: in vivo
Lolium rigidum (LOLRI) [1] = assay: Post-emergence herbicidal action against LOLRI; conditions: dosage 320 g/ha
Method in brief: (§1)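 Post-emergence greenhouse spray, one-leaf stage, 600 l/ha water plus 0.5% additive; WP or EC formulations; application rates 320 g/ha or lower. Visual % damage vs untreated controls at ~3 weeks.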

Setaria viridis (SETVI) [2] = assay: Pre-emergence herbicidal action against SETVI; conditions: dosage 320 g/ha
Method in brief: (§2)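 Seeds sown in pots and covered with soil; WP or EC formulations sprayed onto the soil surface at 600 l/ha water with 0.5% additive, at 320 g/ha or lower. Greenhouse growth for about 3 weeks, then visual scoring as % effect against untreated controls (100% = plants dead).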

Oryza sativa (ORYSA) [3] = conditions: pre-emergence, 80 g/ha, crop plant compatibility, in comparison to untreated controls
Method in brief: (§3)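 Crop injury rated visually in percent against untreated plants roughly 3 weeks after treatment (0% no effect, 100% plants dead). Compounds, as WP or EC with 0.5% additive in 600 l/ha water, were applied to the covering soil right after sowing; greenhouse growth. Suffixes a, b, c denote different dosages.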

[4] = test system: Triticum aestivum (TRZAS); conditions: pre-emergence, 80 g/ha, crop plant compatibility, in comparison to untreated controls
Method in brief: as §3

Zea mays (ZEAMX) [5] = conditions: pre-emergence, 80 g/ha, crop plant compatibility, in comparison to untreated controls
Method in brief: as §3

[6] = test system: Pharbitis purpurea (PHBPU); assay: Post-emergence herbicidal action against PHBPU
Method in brief: as §1

[7] = test system: Amaranthus retroflexus (AMARE); assay: Pre-emergence herbicidal action against AMARE; conditions: 320 g/ha, visual scoring after about 3 weeks vs untreated controls
Method in brief: as §2

[8] = test system: Matricaria inodora (MATIN); assay: Pre-emergence herbicidal action against MATIN; conditions: dosage 320 g/ha
Method in brief: as §2

Setaria viridis (SETVI) [9] = assay: Post-emergence herbicidal action against SETVI
Method in brief: as §1

[10] = test system: Verconica persica (VERPE); assay: Post-emergence herbicidal action against VERPE
Method in brief: as §1

[11] = test system: Echinochloa crus-galli (ECHCG); assay: Post-emergence herbicidal action against ECHCG
Method in brief: as §1

[12] = test system: Pharbitis purpurea (PHBPU); assay: Pre-emergence herbicidal action against PHBPU; conditions: dosage 320 g/ha
Method in brief: as §2

Oryza sativa (ORYSA) [13] = conditions: crop plant compatibility
Method in brief: (§4)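 Foliar application at the one-leaf stage: WP/EC formulation, 0.5% additive, 600 l/ha water. Greenhouse-grown in sandy loam. Endpoint is visual % injury relative to untreated controls at about 3 weeks.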

[14] = test system: Triticum aestivum (TRZAS); conditions: crop plant compatibility, effect vs untreated controls
Method in brief: as §4

Zea mays (ZEAMX) [15] = test system: Zea mays (ZEAMX)
Method in brief: as §4

Lolium rigidum (LOLRI) [16] = assay: Pre-emergence herbicidal action against LOLRI; conditions: dosage 320 g/ha
Method in brief: as §2

[17] = test system: Polygonum convolvulus (POLCO); assay: Pre-emergence herbicidal action against POLCO
Method in brief: as §2

[18] = test system: Verconica persica (VERPE); assay: Pre-emergence herbicidal action against VERPE; conditions: dosage 320 g/ha
Method in brief: as §2

[19] = test system: Amaranthus retroflexus (AMARE); assay: Post-emergence herbicidal action against AMARE
Method in brief: as §1

Avena fatua (AVEFA) [20] = assay: Post-emergence herbicidal action against AVEFA; conditions: 320 g/ha, visual rating about 3 weeks after treatment
Method in brief: as §1

[21] = test system: Echinochloa crus-galli (ECHCG); assay: Pre-emergence herbicidal action against ECHCG
Method in brief: as §2

[22] = test system: Digitaria sanguinalis (DIGSA); assay: Pre-emergence herbicidal action against DIGSA
Method in brief: as §2

[23] = test system: Abutilon theophrasti (ABUTH); assay: Post-emergence herbicidal action against ABUTH; conditions: 80 g/ha, visual rating about 3 weeks after treatment vs untreated controls (100% = plants have died, 0% = like control plants)
Method in brief: as §1

Viola tricolor (VIOTR) = assay: Pre-emergence herbicidal action against VIOTR
Method in brief: as §2

[24] = test system: Alopecurus myosuroides (ALOMY); assay: Pre-emergence herbicidal action against ALOMY; conditions: 320 g/ha; scored visually after about 3 weeks; 100% = plants have died
Method in brief: as §2

Avena fatua (AVEFA) [25] = assay: Pre-emergence herbicidal action against AVEFA; conditions: 320 g/ha, visual scoring after about 3 weeks vs untreated controls
Method in brief: as §2

[26] = test system: Alopecurus myosuroides (ALOMY); assay: Post-emergence herbicidal action against ALOMY; conditions: 80 g/ha, visual rating about 3 weeks after treatment vs untreated controls (100% = plants have died, 0% = like control plants)
Method in brief: as §1

[27] = 80 g/ha, effect in comparison to untreated controls

Compound | Post-emergence action against LOLRI in % (Lolium rigidum (LOLRI) [1]) [%] | Pre-emergence action against SETVI in % (Setaria viridis (SETVI) [2]) [%] | Pre-emergence action against ORYSA in % (Oryza sativa (ORYSA) [3]) [%] | Pre-emergence action against TRZAS in % [4] [%] | Post-emergence action against PHBPU in % ([6]; dosage 80 g/ha) [%] | Post-emergence action against PHBPU in % ([6]; dosage 320 g/ha) [%] | Pre-emergence action against AMARE in % [7] [%] | Pre-emergence action against MATIN in % [8] [%] | Post-emergence action against SETVI in % (Setaria viridis (SETVI) [9]; dosage 320 g/ha) [%] | Post-emergence action against VERPE in % ([10]; 320 g/ha, VERPE) [%] | Post-emergence action against VERPE in % ([10]; dosage 80 g/ha) [%] | Post-emergence action against ECHCG in % ([11]; dosage 320 g/ha) [%] | Pre-emergence action against PHBPU in % [12] [%] | Post-emergence action against ORYSA in % (Oryza sativa (ORYSA) [13]; [27]) [%] | Post-emergence action against TRZAS in % ([14]; 80 g/ha) [%] | Pre-emergence action against LOLRI in % (Lolium rigidum (LOLRI) [16]) [%] | Pre-emergence action against POLCO in % ([17]; dosage 320 g/ha) [%] | Post-emergence action against SETVI in % (Setaria viridis (SETVI) [9]; dosage 80 g/ha) [%] | Pre-emergence action against VERPE in % [18] [%] | Pre-emergence action against POLCO in % ([17]; dosage 80 g/ha) [%] | also measured
COC(=O)CCOC(=O)COc1nn(-c2cccc(C)n2)c(-c2ccc(F)nc2)c1Br [Example I-278] | 80 | 100 | 0 | 0 | 80 | 80 | 80 | 80 | 90 | 90 | 80 | 80 | 80 | 0 | 0 | 80 | – | – | – | – | Pre-emergence action against ZEAMX in % (Zea mays (ZEAMX) [5]): 0%; Post-emergence action against ORYSA in % (Oryza sativa (ORYSA) [13]; 320 g/ha, effect in comparison to untreated controls): 10%; Post-emergence action against ZEAMX in % (Zea mays (ZEAMX) [15]; crop plant compatibility, 80 g/ha, effect vs untreated controls): 20%
COCCOC(=O)COc1nn(-c2cccc(C)n2)c(-c2ccc(F)nc2)c1Cl [Example I-279] | 80 | 90 | 0 | 20 | 80 | 80 | – | 80 | 80 | 90 | 80 | 80 | 100 | 10 | 10 | 80 | 80 | 80 | 80 | – | –
CCOC(=O)COc1nn(-c2cccc(C)n2)c(-c2ccc(F)nc2)c1Cl [Example I-352] | 80 | 90 | 20 | 10 | 90 | 90 | 90 | 90 | 80 | 80 | 80 | 80 | 80 | 20 | 10 | 80 | 90 | – | 80 | 80 | Post-emergence action against AMARE in % ([19]; 320 g/ha, visual rating about 3 weeks after treatment): 80%; Post-emergence action against AVEFA in % (Avena fatua (AVEFA) [20]): 80%; Pre-emergence action against ECHCG in % ([21]; dosage 320 g/ha): 90%
O=C(COc1nn(-c2ccccn2)c(-c2ccc(F)nc2)c1Cl)NS(=O)(=O)CC(F)(F)F [Example I-119] | – | 100 | 10 | 20 | 80 | – | 100 | 90 | – | – | 80 | – | – | 10 | – | 100 | 90 | 80 | – | 80 | Post-emergence action against AMARE in % ([19]; 80 g/ha, visual rating about 3 weeks after treatment vs untreated controls (100% = plants have died, 0% = like control plants)): 90%; Pre-emergence action against DIGSA in % ([22]; 80 g/ha, visual scoring after about 3 weeks vs untreated controls): 100%; Pre-emergence action against DIGSA in % ([22]; dosage 320 g/ha): 100%; Post-emergence action against ABUTH in % [23]: 80%; Pre-emergence action against VIOTR in % (Viola tricolor (VIOTR); 320 g/ha, Viola tricolor): 90%; Pre-emergence action against VIOTR in % (Viola tricolor (VIOTR); dosage 80 g/ha): 80%; Pre-emergence action against ECHCG in % ([21]; dosage 80 g/ha): 80%; Pre-emergence action against ECHCG in % ([21]; dosage 320 g/ha): 100%; Pre-emergence action against ALOMY [24]: 100%; Pre-emergence action against AVEFA in % (Avena fatua (AVEFA) [25]): 80%; Post-emergence action against ALOMY in % [26]: 90%; Post-emergence action against ECHCG in % ([11]; dosage 80 g/ha): 80%; Post-emergence action against ORYSA in % (Oryza sativa (ORYSA) [13]; 20 g/ha, effect vs untreated controls): 0%; Post-emergence action against TRZAS in % ([14]; 20 g/ha): 20%; Post-emergence action against ZEAMX in % (crop plant compatibility) (Zea mays (ZEAMX) [15]; 20 g/ha, ZEAMX, effect in comparison to untreated controls): 10%

— US20240041042A1, “1-(PYRIDYL)-5-AZINYLPYRAZOLE DERIVATIVES, AND THEIR USE FOR CONTROL OF UNDESIRED PLANT GROWTH” (Bayer Aktiengesellschaft, priority 2020, published 2024)
